Measured values reported in publication PMC8414802, “Hair Cell Generation in Cochlear Culture Models Mediated by Novel γ-Secretase Inhibitors” (Frontiers in Cell and Developmental Biology, 2021).

Test system: hair cells in rat OC explants exposed to S. pneumoniae
Test: OC explants after S. pneumoniae-induced damage
Type: cell-based
Method: To induce ototoxic damage, medium was removed from the OC cultures on the day after dissection and either 200 μM sisomicin (Sigma) in full otic medium, or 10^8 cfu/ml Streptococcus pneumoniae (described below) in ampicillin-free and FBS-free otic medium were added under the transwell membrane (lower compartment) of the cultivation system. After 2 h of exposure to the ototoxic insult, OCs were carefully washed 3 times and culture was continued for 4 days in fresh full otic medium.
A clinical isolate of S. pneumoniae, serotype 3 was used as previously described ([Leib et al., 2000]; [Perny et al., 2017]). […] Bacteria were diluted to the desired optical density (OD570 nm) and the final inoculum concentration was determined by plating serial dilutions on Columbia sheep blood agar. […]
Dividing cells were labeled with, 5-ethyl-2′-deoxyuridine (EdU) and detected with Click-it Plus kit (Life Technologies). […]
Image processing was performed with the open-source image processing software FIJI, version 2.0 ([Schindelin et al., 2012]). Hair cells were quantified by counting Pou4f3 or Myo7a positive cells of the organ of Corti at three random microscopic fields for each cochlear region (base, middle, and apex) covering in total at least 1,200 μm. The number of hair cells (IHCs and OHCs) is expressed as unit per 100 μm. […]

For COc1ccc2c(c1)N1CCC(C)(C)C1=CC(=O)[C@H]2NC(=O)[C@H](C)NC(=O)CCC(F)(F)F [CPD3], the “OHCs after S. pneumoniae damage compared to DMSO” value (4 days treatment after 2 h exposure) was “more OHCs in all turns of the organ of Corti” and the “Pou4f3/Sox2 double-positive cells after S. pneumoniae damage” value (apical domain only, not statistically significant) was “increased occurrence”.
